Measured values taken from ChEMBL document CHEMBL3991601, “The target landscape of clinical kinase drugs” (Science, 2017).
pKd: −log10 of the molar value. Calls of active or inactive are those of the source.

Experiments:
[1] = target: T1, Ras-related protein Rab-10 (Homo sapiens, UniProt P61026)
T1 sequence (P61026 whole entry): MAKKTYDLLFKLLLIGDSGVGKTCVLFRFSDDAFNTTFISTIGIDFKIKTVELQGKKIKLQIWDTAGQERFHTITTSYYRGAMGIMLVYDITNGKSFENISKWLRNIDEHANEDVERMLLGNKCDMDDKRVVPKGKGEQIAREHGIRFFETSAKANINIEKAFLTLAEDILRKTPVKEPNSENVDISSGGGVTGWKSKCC

[2] = target: Tyrosine-protein kinase FRK (Homo sapiens, UniProt P42685)
Sequence of Tyrosine-protein kinase FRK (P42685 whole entry): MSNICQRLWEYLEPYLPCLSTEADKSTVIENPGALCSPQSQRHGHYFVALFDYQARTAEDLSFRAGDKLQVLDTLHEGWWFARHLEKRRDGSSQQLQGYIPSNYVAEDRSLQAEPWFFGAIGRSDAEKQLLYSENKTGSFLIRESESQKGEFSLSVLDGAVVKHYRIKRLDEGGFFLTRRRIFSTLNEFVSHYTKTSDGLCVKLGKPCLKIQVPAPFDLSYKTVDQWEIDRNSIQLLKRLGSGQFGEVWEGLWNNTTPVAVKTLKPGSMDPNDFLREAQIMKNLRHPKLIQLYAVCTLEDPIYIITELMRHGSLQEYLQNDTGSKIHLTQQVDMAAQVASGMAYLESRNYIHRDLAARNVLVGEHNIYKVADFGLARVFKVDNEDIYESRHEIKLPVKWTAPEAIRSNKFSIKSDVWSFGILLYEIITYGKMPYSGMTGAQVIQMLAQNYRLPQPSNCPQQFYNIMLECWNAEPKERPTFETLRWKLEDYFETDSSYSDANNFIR

Actin-related protein 2 = Actin-related protein 2 (Homo sapiens, UniProt P61160)
[3] = target: Mitogen-activated protein kinase 11 (Homo sapiens, UniProt Q15759)
[4] = target: TRAF2 and NCK-interacting protein kinase (Homo sapiens, UniProt Q9UKE5)
[5] = target: Cyclin-dependent kinase 4 (Homo sapiens, UniProt P11802)
Sequence of Cyclin-dependent kinase 4 (P11802 whole entry): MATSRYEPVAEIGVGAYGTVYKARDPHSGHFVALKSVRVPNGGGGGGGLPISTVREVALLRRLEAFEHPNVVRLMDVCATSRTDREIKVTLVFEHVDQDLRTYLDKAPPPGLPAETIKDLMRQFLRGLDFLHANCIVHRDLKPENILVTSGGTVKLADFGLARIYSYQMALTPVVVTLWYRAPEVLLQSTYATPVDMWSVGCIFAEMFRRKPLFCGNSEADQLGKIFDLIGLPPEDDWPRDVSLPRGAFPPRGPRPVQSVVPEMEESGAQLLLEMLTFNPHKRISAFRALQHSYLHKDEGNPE

[6] = target: Ribosomal protein S6 kinase alpha-6 (Homo sapiens, UniProt Q9UK32)
Sequence of Ribosomal protein S6 kinase alpha-6 (Q9UK32 whole entry): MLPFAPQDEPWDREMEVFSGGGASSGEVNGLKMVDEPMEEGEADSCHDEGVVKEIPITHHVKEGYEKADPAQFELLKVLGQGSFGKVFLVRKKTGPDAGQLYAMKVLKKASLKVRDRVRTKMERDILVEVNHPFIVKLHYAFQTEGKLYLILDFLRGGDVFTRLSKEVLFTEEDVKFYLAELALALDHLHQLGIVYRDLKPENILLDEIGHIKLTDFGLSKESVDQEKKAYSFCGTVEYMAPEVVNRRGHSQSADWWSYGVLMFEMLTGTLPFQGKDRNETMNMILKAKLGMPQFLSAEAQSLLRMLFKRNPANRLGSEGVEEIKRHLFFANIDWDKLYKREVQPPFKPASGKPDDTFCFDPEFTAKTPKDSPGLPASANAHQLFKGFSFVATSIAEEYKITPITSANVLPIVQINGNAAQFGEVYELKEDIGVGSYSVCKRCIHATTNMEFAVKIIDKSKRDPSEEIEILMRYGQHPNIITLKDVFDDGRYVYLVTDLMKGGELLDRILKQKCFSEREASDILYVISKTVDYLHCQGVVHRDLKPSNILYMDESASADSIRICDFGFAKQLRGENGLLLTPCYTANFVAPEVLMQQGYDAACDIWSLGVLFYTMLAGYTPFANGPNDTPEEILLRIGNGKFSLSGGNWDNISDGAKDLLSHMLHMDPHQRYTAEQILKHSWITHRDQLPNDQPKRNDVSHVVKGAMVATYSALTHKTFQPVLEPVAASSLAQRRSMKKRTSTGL

[7] = target: T2, Mitogen-activated protein kinase kinase kinase 5 (Homo sapiens, UniProt Q99683)
T2 sequence (Q99683 whole entry): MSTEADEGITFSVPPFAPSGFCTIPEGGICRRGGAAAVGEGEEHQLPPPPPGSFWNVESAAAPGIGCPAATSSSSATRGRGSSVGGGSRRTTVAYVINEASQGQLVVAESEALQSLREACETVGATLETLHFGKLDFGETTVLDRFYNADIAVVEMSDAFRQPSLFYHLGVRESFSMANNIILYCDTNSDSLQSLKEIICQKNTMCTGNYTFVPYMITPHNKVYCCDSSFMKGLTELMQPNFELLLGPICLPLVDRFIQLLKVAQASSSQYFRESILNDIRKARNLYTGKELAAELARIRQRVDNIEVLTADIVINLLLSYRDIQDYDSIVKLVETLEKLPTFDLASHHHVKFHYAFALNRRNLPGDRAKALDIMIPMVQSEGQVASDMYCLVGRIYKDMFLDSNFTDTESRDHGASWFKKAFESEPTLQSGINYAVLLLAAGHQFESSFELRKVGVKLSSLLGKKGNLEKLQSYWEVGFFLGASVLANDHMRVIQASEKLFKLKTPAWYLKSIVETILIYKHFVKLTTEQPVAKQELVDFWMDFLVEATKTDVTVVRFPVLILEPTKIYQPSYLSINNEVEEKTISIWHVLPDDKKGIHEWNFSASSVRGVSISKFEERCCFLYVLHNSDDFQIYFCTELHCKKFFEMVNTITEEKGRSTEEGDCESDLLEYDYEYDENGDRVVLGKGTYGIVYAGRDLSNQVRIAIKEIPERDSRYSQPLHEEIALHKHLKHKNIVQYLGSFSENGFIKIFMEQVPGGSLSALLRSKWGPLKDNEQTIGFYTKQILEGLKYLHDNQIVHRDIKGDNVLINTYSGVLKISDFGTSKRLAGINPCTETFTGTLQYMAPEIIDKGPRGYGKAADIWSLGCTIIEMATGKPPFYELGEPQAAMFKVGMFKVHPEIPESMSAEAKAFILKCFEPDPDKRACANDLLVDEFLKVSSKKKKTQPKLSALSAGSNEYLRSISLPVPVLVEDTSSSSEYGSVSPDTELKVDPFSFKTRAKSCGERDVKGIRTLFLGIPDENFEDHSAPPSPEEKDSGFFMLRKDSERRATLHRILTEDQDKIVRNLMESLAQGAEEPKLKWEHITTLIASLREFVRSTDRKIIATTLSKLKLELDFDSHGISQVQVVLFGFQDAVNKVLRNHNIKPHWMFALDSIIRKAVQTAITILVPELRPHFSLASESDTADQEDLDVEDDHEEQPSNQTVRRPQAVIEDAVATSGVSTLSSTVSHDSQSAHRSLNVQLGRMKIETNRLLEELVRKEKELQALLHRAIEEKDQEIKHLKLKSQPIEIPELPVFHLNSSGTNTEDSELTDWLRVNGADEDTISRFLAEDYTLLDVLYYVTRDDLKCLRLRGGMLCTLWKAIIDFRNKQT

[8] = target: Calcium/calmodulin-dependent protein kinase kinase 2 (Homo sapiens, UniProt Q96RR4)
Sequence of Calcium/calmodulin-dependent protein kinase kinase 2 (Q96RR4 whole entry): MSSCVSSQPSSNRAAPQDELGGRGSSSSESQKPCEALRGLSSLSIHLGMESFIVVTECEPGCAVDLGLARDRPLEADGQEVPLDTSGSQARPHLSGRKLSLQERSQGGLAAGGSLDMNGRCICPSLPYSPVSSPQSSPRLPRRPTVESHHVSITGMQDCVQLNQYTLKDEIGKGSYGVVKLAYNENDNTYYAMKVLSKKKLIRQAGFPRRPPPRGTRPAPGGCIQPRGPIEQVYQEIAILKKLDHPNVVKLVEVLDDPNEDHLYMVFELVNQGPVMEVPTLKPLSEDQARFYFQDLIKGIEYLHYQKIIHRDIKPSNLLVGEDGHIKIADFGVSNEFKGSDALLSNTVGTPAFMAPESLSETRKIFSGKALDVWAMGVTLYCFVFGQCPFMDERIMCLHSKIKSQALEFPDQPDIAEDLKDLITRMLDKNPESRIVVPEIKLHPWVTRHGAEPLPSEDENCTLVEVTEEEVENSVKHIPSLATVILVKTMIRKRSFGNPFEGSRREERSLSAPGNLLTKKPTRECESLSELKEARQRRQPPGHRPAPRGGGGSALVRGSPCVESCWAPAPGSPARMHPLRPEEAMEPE

[9] = target: Tyrosine-protein kinase Lck (Homo sapiens, UniProt P06239)
[10] = target: DNA topoisomerase 2-alpha (Homo sapiens, UniProt P11388)
[11] = target: Serine/threonine-protein kinase MRCK alpha (Homo sapiens, UniProt Q5VT25)
Sequence of Serine/threonine-protein kinase MRCK alpha (Q5VT25 whole entry): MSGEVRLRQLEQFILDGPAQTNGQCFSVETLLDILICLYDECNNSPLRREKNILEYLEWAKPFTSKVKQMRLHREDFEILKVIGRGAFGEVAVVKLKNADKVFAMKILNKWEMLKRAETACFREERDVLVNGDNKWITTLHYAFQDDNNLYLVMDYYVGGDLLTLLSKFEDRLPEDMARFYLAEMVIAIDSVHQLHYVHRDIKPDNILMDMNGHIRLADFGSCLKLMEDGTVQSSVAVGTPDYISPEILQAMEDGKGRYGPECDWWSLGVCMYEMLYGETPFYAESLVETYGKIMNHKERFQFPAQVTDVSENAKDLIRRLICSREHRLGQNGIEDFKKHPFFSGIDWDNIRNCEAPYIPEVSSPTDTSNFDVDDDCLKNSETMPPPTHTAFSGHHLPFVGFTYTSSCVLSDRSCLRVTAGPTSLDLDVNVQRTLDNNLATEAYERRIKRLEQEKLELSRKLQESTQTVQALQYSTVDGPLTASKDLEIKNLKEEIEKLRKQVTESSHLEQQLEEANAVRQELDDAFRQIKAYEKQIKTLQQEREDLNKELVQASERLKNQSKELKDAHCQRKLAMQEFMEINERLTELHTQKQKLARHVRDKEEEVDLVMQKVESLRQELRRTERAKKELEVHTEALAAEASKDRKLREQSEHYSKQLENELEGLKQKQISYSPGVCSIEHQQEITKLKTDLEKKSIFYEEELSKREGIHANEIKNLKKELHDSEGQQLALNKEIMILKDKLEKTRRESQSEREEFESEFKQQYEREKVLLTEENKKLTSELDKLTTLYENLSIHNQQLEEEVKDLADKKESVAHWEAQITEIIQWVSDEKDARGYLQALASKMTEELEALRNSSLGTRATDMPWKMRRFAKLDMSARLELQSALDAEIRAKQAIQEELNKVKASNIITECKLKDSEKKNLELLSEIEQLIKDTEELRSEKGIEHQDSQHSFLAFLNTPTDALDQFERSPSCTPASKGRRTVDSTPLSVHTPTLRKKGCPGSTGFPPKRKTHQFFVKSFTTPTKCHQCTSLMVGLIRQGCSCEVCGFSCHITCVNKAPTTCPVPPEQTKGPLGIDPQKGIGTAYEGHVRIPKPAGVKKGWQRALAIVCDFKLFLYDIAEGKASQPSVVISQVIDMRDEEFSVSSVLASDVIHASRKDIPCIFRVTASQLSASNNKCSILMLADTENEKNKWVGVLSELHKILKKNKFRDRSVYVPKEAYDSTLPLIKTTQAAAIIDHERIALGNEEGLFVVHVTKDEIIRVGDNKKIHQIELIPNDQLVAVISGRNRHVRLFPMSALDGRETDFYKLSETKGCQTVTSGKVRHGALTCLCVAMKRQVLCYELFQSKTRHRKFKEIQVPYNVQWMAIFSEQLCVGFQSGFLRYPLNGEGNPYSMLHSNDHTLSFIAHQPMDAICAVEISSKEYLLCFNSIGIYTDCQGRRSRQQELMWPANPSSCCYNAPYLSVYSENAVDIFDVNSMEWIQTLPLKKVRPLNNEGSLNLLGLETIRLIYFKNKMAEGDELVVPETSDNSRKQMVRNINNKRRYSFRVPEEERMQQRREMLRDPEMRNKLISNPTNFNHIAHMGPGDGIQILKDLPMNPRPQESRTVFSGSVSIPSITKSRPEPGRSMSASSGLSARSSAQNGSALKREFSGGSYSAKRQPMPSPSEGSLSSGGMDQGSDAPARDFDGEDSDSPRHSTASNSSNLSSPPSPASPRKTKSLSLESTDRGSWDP

[12] = target: Serine/threonine-protein kinase/endoribonuclease IRE1 (Homo sapiens, UniProt O75460)
Sequence of Serine/threonine-protein kinase/endoribonuclease IRE1 (O75460 whole entry): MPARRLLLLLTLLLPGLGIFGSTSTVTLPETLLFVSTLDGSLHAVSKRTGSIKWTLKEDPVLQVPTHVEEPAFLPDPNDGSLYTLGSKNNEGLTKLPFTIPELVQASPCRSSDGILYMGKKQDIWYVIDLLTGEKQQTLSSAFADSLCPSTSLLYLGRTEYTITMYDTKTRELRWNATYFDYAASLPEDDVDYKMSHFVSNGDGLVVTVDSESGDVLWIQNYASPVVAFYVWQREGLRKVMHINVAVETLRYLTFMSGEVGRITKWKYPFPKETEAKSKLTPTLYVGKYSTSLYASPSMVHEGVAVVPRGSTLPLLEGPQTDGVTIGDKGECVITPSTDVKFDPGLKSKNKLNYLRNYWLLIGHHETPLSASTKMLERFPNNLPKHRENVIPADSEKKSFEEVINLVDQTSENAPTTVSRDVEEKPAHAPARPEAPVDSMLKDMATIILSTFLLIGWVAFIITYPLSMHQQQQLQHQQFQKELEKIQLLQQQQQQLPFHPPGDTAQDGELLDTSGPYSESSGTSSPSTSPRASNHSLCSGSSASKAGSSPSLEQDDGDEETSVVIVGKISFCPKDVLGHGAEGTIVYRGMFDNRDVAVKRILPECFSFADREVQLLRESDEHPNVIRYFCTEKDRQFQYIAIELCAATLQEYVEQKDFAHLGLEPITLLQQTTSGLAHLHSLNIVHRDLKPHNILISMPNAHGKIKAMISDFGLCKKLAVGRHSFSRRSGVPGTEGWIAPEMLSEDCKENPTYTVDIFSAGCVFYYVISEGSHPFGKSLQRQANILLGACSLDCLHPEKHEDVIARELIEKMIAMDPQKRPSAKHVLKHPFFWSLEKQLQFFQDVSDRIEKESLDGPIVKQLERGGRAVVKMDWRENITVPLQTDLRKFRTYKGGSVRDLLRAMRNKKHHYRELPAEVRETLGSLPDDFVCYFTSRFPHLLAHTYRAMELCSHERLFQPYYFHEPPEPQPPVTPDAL

dCTP pyrophosphatase 1 = target: T3, dCTP pyrophosphatase 1 (Homo sapiens, UniProt Q9H773)
T3 sequence (Q9H773 whole entry): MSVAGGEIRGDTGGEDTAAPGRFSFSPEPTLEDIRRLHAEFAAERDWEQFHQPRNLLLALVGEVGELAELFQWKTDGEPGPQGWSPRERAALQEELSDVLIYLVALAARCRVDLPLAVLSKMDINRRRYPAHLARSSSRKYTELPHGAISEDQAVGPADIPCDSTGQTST
Note: in the data inactive means no Kd found up to 30 µM.

| Structure (SMILES) | Kd [1] | Kd [2] | Kd (Actin-related protein 2) | Kd [3] | Kd [4] | Kd [5] | Kd [6] | Kd [7] | Kd [8] | Kd [9] | Kd [10] | Kd [11] | Kd [12] | Kd (dCTP pyrophosphatase 1) | pKd [12] |
| --- | --- | --- | --- | --- | --- | --- | --- | --- | --- | --- | --- | --- | --- | --- | --- |
| CNC(=O)c1cc(Oc2ccc(NC(=O)Nc3ccc(Cl)c(C(F)(F)F)c3)c(F)c2)ccn1 [REGORAFENIB] | > 30 µM (inactive) | > 30 µM (inactive) | > 30 µM (inactive) | 1.91 µM (active) | > 30 µM (inactive) | > 30 µM (inactive) | > 30 µM (inactive) | > 30 µM (inactive) | > 30 µM (inactive) | > 30 µM (inactive) | > 30 µM (inactive) | > 30 µM (inactive) | > 30 µM (inactive) | > 30 µM (inactive) |  |
| CNS(=O)(=O)Nc1nccc(Cc2c(C)c3ccc(Oc4ncccn4)cc3oc2=O)c1F [AVUTOMETINIB] | > 30 µM (inactive) | > 30 µM (inactive) | > 30 µM (inactive) | > 30 µM (inactive) | > 30 µM (inactive) | > 30 µM (inactive) | > 30 µM (inactive) | > 30 µM (inactive) | > 30 µM (inactive) | > 30 µM (inactive) | > 30 µM (inactive) | > 30 µM (inactive) | > 30 µM (inactive) | > 30 µM (inactive) |  |
| CCCS(=O)(=O)Nc1ccc(F)c(C(=O)c2c[nH]c3ncc(-c4ccc(Cl)cc4)cc23)c1F [VEMURAFENIB] | > 30 µM (inactive) | > 30 µM (inactive) | > 30 µM (inactive) | > 30 µM (inactive) | > 30 µM (inactive) | > 30 µM (inactive) | > 30 µM (inactive) | > 30 µM (inactive) | > 30 µM (inactive) | > 30 µM (inactive) | > 30 µM (inactive) | > 30 µM (inactive) | > 30 µM (inactive) | > 30 µM (inactive) |  |
| COc1cc2nccc(Oc3ccc(NC(=O)NC4CC4)c(Cl)c3)c2cc1C(N)=O [LENVATINIB] | > 30 µM (inactive) | > 30 µM (inactive) | > 30 µM (inactive) | > 30 µM (inactive) | 0.565 µM (active) | > 30 µM (inactive) | > 30 µM (inactive) | > 30 µM (inactive) | > 30 µM (inactive) | > 30 µM (inactive) | > 30 µM (inactive) | > 30 µM (inactive) |  | > 30 µM (inactive) | 5.65 |
| Cc1ccc(S(=O)(=O)Nc2nc3ccccc3nc2Nc2ccc3nsnc3c2)cc1 | > 30 µM (inactive) | > 30 µM (inactive) | > 30 µM (inactive) | > 30 µM (inactive) | > 30 µM (inactive) | > 30 µM (inactive) | > 30 µM (inactive) | > 30 µM (inactive) | > 30 µM (inactive) | > 30 µM (inactive) | > 30 µM (inactive) | > 30 µM (inactive) | > 30 µM (inactive) | > 30 µM (inactive) |  |
| CCn1c(=O)c(-c2cc[nH]n2)cc2c(C)nc(N)nc21 [VOXTALISIB] | > 30 µM (inactive) | > 30 µM (inactive) | > 30 µM (inactive) | > 30 µM (inactive) | > 30 µM (inactive) | > 30 µM (inactive) | > 30 µM (inactive) | > 30 µM (inactive) | > 30 µM (inactive) | > 30 µM (inactive) | > 30 µM (inactive) | > 30 µM (inactive) | > 30 µM (inactive) | > 30 µM (inactive) |  |
| CC(=O)Nc1cccc(-n2c(=O)n(C3CC3)c(=O)c3c(Nc4ccc(I)cc4F)n(C)c(=O)c(C)c32)c1 [TRAMETINIB] | > 30 µM (inactive) | > 30 µM (inactive) | > 30 µM (inactive) | > 30 µM (inactive) | > 30 µM (inactive) | > 30 µM (inactive) | > 30 µM (inactive) | > 30 µM (inactive) | > 30 µM (inactive) | > 30 µM (inactive) | > 30 µM (inactive) | > 30 µM (inactive) | > 30 µM (inactive) | > 30 µM (inactive) |  |
| CN1CC[C@@H](c2c(O)cc(O)c3c(=O)cc(-c4ccccc4Cl)oc23)[C@@H]1CO | > 30 µM (inactive) | > 30 µM (inactive) | > 30 µM (inactive) | > 30 µM (inactive) | > 30 µM (inactive) | > 30 µM (inactive) | > 30 µM (inactive) | > 30 µM (inactive) | > 30 µM (inactive) | > 30 µM (inactive) | > 30 µM (inactive) | > 30 µM (inactive) | > 30 µM (inactive) | > 30 µM (inactive) |  |
| O=c1sn(-c2cccc3ccccc23)c(=O)n1Cc1ccccc1 [TIDEGLUSIB] | > 30 µM (inactive) | > 30 µM (inactive) | > 30 µM (inactive) | > 30 µM (inactive) | > 30 µM (inactive) | > 30 µM (inactive) | > 30 µM (inactive) | > 30 µM (inactive) | > 30 µM (inactive) | > 30 µM (inactive) | > 30 µM (inactive) | > 30 µM (inactive) | > 30 µM (inactive) | > 30 µM (inactive) |  |

Second part, the compound after the results:

| Kd [1] | Kd [2] | Kd (Actin-related protein 2) | Kd [3] | Kd [4] | Kd [5] | Kd [6] | Kd [7] | Kd [8] | Kd [9] | Kd [10] | Kd [11] | Kd [12] | Kd (dCTP pyrophosphatase 1) | pKd [12] | Structure (SMILES) |
| --- | --- | --- | --- | --- | --- | --- | --- | --- | --- | --- | --- | --- | --- | --- | --- |
| > 30 µM (inactive) | > 30 µM (inactive) | > 30 µM (inactive) | > 30 µM (inactive) | > 30 µM (inactive) | > 30 µM (inactive) | > 30 µM (inactive) | > 30 µM (inactive) | > 30 µM (inactive) | > 30 µM (inactive) | > 30 µM (inactive) | > 30 µM (inactive) | > 30 µM (inactive) | > 30 µM (inactive) |  | O=C(Nc1ccc(-c2ccnc(Nc3ccc(N4CCOCC4)cc3)n2)cc1)C1CCCN1 (stereo not drawn) [XL-019] |
| > 30 µM (inactive) | > 30 µM (inactive) | > 30 µM (inactive) | > 30 µM (inactive) | > 30 µM (inactive) | > 30 µM (inactive) | > 30 µM (inactive) | > 30 µM (inactive) | > 30 µM (inactive) | > 30 µM (inactive) | > 30 µM (inactive) | > 30 µM (inactive) | > 30 µM (inactive) | > 30 µM (inactive) |  | CCN1CCN(Cc2ccc(-c3cc4c(N[C@H](C)c5ccccc5)ncnc4[nH]3)cc2)CC1 [AEE-788] |
| > 30 µM (inactive) | > 30 µM (inactive) | > 30 µM (inactive) | > 30 µM (inactive) | > 30 µM (inactive) | > 30 µM (inactive) | > 30 µM (inactive) | > 30 µM (inactive) | > 30 µM (inactive) | > 30 µM (inactive) | > 30 µM (inactive) | > 30 µM (inactive) | > 30 µM (inactive) | > 30 µM (inactive) |  | O=C1NC(=O)/C(=C/c2ccc3nccc(-c4ccncc4)c3c2)S1 [GSK-1059615] |
